From patent US6596474B1, “Prevention and treatment of amyloid-associated disorders” (Scios Inc., priority 1999, dated 2003)
Values belong to the molecule of their own block, whether it stands above or below them.

Key:
[1] = tested on: primary mixed murine glial cultures; test: PGE2 in medium conditioned by primary mixed murine glial cultures; assay type: cell-based; details: 14 μM indomethacin during 48 hour conditioning; basal just under 200 pg/ml
Method: (§1) As co-culture with astrocytes is known to promote the resting state for cultured microglia, mixed primary glial cultures are a particularly suitable system in which to examine PGE2:Aβ synergy. Briefly, cortices from P3 wild type mice were dissected in Ca^2+ and Mg^2+ free HBSS (Gibco). Meninges were carefully dissected away, and the tissue transferred to a dish containing HBSS supplemented with 0.53 mM EDTA and 0.05% trypsin. The tissue was incubated for 18 minutes at room temperature with occasional gentle agitation. Trypsin was removed and the tissue washed with HBSS twice prior to titration in growth medium consisting of high glucose DMEM supplemented with 10% fetal bovine serum (FBS), 110 mg/L sodium pyruvate, and 5 units/ml penicillin/streptomycin. The cell suspension was plated at 9 cortices in growth medium into one T75 and one T25 flask. The next day, nonadherent cells were removed. The culture was refed with growth medium at this time and once every 3 days following. When the culture appeared quite confluent, approximately one week, it was trypsinized and split into 48 well plates at 10^5 cells/well. Experiments were initiated in several days when cells again reached confluence.
This is within the range in which would allow PGE2:Aβ synergy to be observed.

EP1 = molecular target: T1, EP1 (Homo sapiens, UniProt P34995); test: [3H]-PGE2 binding to EP1; details: read-out: Ki for inhibition of [3H]-PGE2 binding to EP1
T1 sequence (P34995 1-402): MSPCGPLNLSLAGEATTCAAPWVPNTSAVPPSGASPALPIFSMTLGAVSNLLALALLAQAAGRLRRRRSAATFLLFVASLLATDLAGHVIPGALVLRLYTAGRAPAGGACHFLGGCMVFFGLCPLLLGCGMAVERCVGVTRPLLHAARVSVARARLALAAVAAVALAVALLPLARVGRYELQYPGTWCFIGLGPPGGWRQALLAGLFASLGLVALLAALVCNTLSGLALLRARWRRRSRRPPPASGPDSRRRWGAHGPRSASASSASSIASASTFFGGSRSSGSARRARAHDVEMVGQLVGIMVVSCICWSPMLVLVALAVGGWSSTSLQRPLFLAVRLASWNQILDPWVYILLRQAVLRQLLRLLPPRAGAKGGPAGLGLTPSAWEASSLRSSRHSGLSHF
Text: (§2) An EP1/2 selective antagonist AH6809 (Woodward et al., 1995) was used to block the activity of EP2.

EP2 = EP2 (Homo sapiens, UniProt P43116); test: PGE2 stimulated cAMP accumulation functional assay; assay type: cell-based; details: read-out: EC50 for inhibition of PGE2 induced cAMP generation
Sequence of EP2 (P43116 whole entry): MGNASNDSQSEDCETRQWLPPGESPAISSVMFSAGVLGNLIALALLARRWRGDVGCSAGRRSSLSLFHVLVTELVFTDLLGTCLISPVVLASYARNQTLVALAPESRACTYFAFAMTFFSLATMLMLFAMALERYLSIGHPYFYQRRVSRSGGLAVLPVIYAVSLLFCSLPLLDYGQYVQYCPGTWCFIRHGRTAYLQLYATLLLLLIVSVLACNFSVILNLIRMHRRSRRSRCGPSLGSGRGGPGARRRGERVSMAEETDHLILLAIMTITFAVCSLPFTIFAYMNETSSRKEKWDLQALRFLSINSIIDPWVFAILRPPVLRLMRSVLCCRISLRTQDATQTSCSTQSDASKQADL
Text: as §2

primary glia = test: Aβ:PGE2 activation of primary glia in presence of EP2 antagonist; assay type: cell-based; details: even at 10-fold higher concentration than the Kd; FIG. 7
BV-2 microglia = test: Aβ stimulation of BV-2 cells in presence of antagonist or antisense; assay type: cell-based, murine
Text: In addition, the EP2 antagonist AH6809 had no effect on Aβ stimulation of BV-2 cells (FIG. 7). Aβ treatment of BV-2 microglia has two striking morphological effects. First, cells clumped in a manner consistent with the well documented microglial chemotactic activity to Aβ. Second, the morphology of individual cells is altered such that they change from a spherical to an elongated, process bearing shape.
Since selective EP4 antagonists were unavailable, an antisense approach is used to probe involvement of EP4 in Aβ:PGE2 activation of microglia. The antisense oligonucleotides are first tested for their ability to inhibit EP4 expression by measuring their effect on PGE2 stimulation of cAMP accumulation, an EP2/EP4 mediated event. Once the activity of the antisense oligonucleotide is confirmed, the effect of the oligonucleotide on Aβ:PGE2 activation is tested in BV-2 microglial cells.
Next, BV-2 cells are pretreated with the antisense oligonucleotides for 48 hours and then, in the continued presence of the oligonucleotide, the pretreated cells are exposed to Aβ. […] The EP4 construct decreases IL-1β by 50%, a substantial effect for this method of inhibition (FIG. 8).

EP4 = EP4 (Homo sapiens, UniProt P35408); test: [3H]-PGE2 binding to EP4
Sequence of EP4 (P35408 whole entry): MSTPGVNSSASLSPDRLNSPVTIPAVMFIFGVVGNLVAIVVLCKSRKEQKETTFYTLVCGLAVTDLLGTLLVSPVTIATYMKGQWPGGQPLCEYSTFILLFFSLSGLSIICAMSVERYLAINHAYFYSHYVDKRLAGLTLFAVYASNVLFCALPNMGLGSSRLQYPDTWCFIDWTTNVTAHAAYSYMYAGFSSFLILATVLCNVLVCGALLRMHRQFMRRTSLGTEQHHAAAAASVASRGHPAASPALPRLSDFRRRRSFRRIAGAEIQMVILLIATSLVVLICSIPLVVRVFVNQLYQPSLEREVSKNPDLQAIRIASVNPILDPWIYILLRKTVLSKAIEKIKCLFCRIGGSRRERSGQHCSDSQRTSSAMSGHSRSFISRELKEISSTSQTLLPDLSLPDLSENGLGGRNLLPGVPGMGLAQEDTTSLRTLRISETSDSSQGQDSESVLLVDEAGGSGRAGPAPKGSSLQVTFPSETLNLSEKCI
Text: as §2

microglia = test: cAMP pathway agents as co-activators with Aβ of microglia; assay type: cell-based
Text: Two of the four PGE2 isoforms, EP2 and EP4, are coupled to Gs and elevate cAMP levels upon activation. EP3 is coupled to Gi and inhibits cAMP production while EP1 increased Ca^++i. As a first step in distinguishing the receptor isoform mediating the PGE2 signal, the second messenger in the Aβ coactivation pathway was identified.

[2] = tested on: primary cortical mixed glial cultures; test: Aβ:PGE2 synergy in primary cortical mixed glial cultures, cytokine levels; assay type: cell-based, mice; details: agent alone; 100 pg/ml PGE2 or 11 hour aged Aβ; 48 hours; indomethacin pretreated
Method: as §1
The effect of Aβ in the presence and absence of exogenous PGE2 was investigated in these primary cortical mixed glial cultures. An Aβ peptide was resuspended at 4 mg/ml in 50% HFIP, incubated overnight at 37° C., dried in a Speed Vac, and resuspended in water at 4 mg/ml. The peptide was then “aged” at 37° C. for 11 or 24 hours and sonicated for 30 seconds on ice prior to use.
100 pg/ml of PGE2 is a low dose that is not expected to stimulate receptors for thromboxane or other prostenoids and is likely to be physiologically relevant. […] Treatments were made in duplicate. After 48 hours, media and lysates were harvested and assayed.
We confirmed the cellular source of the if biochemical signal by immunocytochemistry with an anti-mouse IL-1α monoclonal antibody (R&D Systems).

[3] = tested on: mouse microglial cell line MMGT-16; test: Aβ:PGE2 synergy in MMGT-16 cells, cytokine secretion; assay type: cell-based; details: agent alone
Text: The protocol described above in Example 2 was then used to examine the synergy between PGE2 and Aβ in the mouse microglial cell line MMGT-16.
Synergy in MMGT-16 cells was examined by measuring secretion of both TNF-α (FIG. 5) and IL-1β (FIG. 4).

[4] = tested on: BV-2 murine microglial cells; test: Aβ activation of BV-2 cells (IL-1α); assay type: cell-based; details: exogenous PGE2 co-incubation
Method: BV-2 murine microglial cells display many phenotypic properties of primary microglia (Blasi et al., 1990; Bocchini et al., 1992), including responsiveness to Aβ (Murphy et al., 1998). BV-2 cells are quasi-activated under basal culture conditions and secrete significant quantities of PGE2, and Aβ treatment alone induces IL-1α in BV-2 cells. […] This was believed to result from co-activation by endogenous PGE2.
The PGE2 concentration in the 24 hour conditioned media from a BV-2 cell culture was a typically 500-800 pg/ml, well above that used for Aβ:PGE2 stimulation. […] Aβ activation of BV-2 cells is highly reproducible, having been observed in 90% of experiments with a mean stimulation of 3.2 fold (n=21; p<0.05 vs. media control).

Structure (SMILES): COc1ccc2c(c1)c(CC(=O)O)c(C)n2C(=O)c1ccc(Cl)cc1 [indomethacin]
- PGE2 secretion [1]: about 30 pg/ml

- Ki (EP1): 1 µM
- EC50 (EP2): 1 µM
- inhibition of [3H]-PGE2 binding to EP4 (EP4): lack of AH6809 inhibition
Structure (SMILES): CC(C)Oc1ccc2c(=O)c3cc(C(=O)O)ccc3oc2c1 [AH6809]
- effect on Aβ:PGE2 activation of primary glia (primary glia): no effect
- effect on morphological responses to Aβ (clumping, elongated process bearing shape) (BV-2 microglia; BV-2 microglia): no effect on either response
- effect on Aβ stimulation of BV-2 cells (BV-2 microglia; FIG. 7): no effect

Structure (SMILES): COc1ccc(C2CNC(=O)C2)cc1OC1CCCC1 (stereo not drawn) [rolipram]
- effect on Aβ:PGE2 stimulation of microglial cytokine production (microglia): enhance

Structure (SMILES): Nc1ncnc2c1nc(Br)n2[C@@H]1O[C@@H]2COP(=O)(O)O[C@H]2[C@H]1O [8-Br-cAMP]
- substitution for PGE2 as co-activator with Aβ (microglia): ability to substitute for PGE2 as a coactivator with Aβ

Structure (SMILES): CCCCC[C@H](O)/C=C/[C@H]1[C@H](O)CC(=O)[C@@H]1C/C=C\CCCC(=O)O [PGE2, Prostaglandin E2]
- intracellular IL-1α [2]: Neither PGE2 nor 11 hour aged Aβ alone had an effect
- secreted IL-1α [2]: Neither PGE2 nor 11 hour aged Aβ alone had an effect
- secreted IL-6 [2]: Neither PGE2 nor 11 hour aged Aβ alone had an effect
- TNF-α secretion [3]: no discernable effect
- secretion of IL-1β [3]: unaffected
- enhancement of Aβ-induced IL-1α elevation [4]: not further enhanced
